Results published in US11446301B2, “Quinoline analogs as phosphatidylinositol 3-kinase inhibitors” (NANJING ZHENGXIANG PHARMACEUTICALS CO., LTD., priority 2016, dated 2022).
Read-outs that look alike come from different tables or passages of the source.

Columns and labels:
[1] = PK profiles after iv and PO dosing in rats; assay type: in vivo; conditions: oral dose 10 mg/kg, SD rats, vs idelalisib
Protocol: Compound 2 was dosed by both iv and PO in the rats.

human hepatocytes = assay: Hepatocyte stability (parent disappearance in cryopreserved hepatocytes); assay type: in vitro ADME
Protocol: The hepatocyte assay was used to evaluate the metabolic stability of test articles (TA) following incubation in cryopreserved hepatocytes by monitoring parent drug disappearance via […]. The TA with 1% final DMSO concentration was incubated with 0.5 million hepatocytes/ml at 1 μM substrate in duplicate. The incubation was carried out at 37° C. with 5% CO2 and saturating humidity. Samples were taken at 0, 1, 2, and 3 hours to monitor the disappearance of TA and a half-life (t ½) was determined. Table 2 below summarizes the t½ values (e.g. t ½) collected from this Example.

[2] = cited from earlier work
[3] = IV; data from idelalisib NDA filing; cited from earlier work

## C[C@H](Nc1nc(N)nc(N)c1C#N)c1cc2ccc(F)cc2nc1-c1ccccn1 (stereo in doubt) [Compound 2, (S)-2,4-Diamino-6-[1-(7-fluoro-2-pyridin-2-yl-quinolin-3-yl)-ethyla-mino]-pyrimidine-5-carbonitrile]
[1]
  Oral exposure corrected with dose (AUCinf/dose) higher than that of idelalisib: 20 fold

## C[C@H](Nc1nc(N)nc(N)c1C#N)c1cc2ccc(F)cc2nc1-c1ccccc1S(C)(=O)=O (stereo in doubt) [Compound 4, (S)-2,4-Diamino-6-{1-[7-fluoro-2-(2-methanesulfonyl-phenyl)-quinoli-n-3-yl]-ethylamino}-pyrimidine-5-carbonitrile]
Human hepatocytes; fold vs compound E
  improved stability in human hepatocytes (longer half-life) than compound E: 1.3 ×

## C[C@H](Nc1nc(N)nc(N)c1C#N)c1cc2ccc(F)cc2nc1-c1ccccc1 [Compound 1, (S)-2,4-diamino-6-[1-(7-fluoro-2-phenyl-quinolin-3-yl)-ethylamino]-pyrimidine-5-carbonitrile]
Human hepatocytes; fold vs compound D
  improved stability in human hepatocytes (longer half-life) than compound D: 2.7 ×

## CC[C@H](Nc1ncnc2[nH]cnc12)c1nc2cccc(F)c2c(=O)n1-c1ccccc1 [Idelalisib, idelalisib]
[2]; idelalisib in combination trials
  Fatal and/or serious hepatotoxicity, patients: 11%
[2]; idelalisib monotherapy
  Fatal and/or serious hepatotoxicity, patients: 18%
[3]
  Tmax: 3.6 min
